In US8318105B2, “Systems and methods for biomarker analysis” (priority 2010, dated 2012):
Values joined by “and” are separate entries in the source; they are usually repeats but may differ in a detail not shown here. Equal entries are not always repeated.

Experiments:
[1] = tested on: peroxidase; experiment: Peroxidase assay in saliva (Amplex Red); format: biochemical; settings: compound prepared at 500 ppm, 30 minutes, FIGS. 26-29
Experimental: To determine the effect of various GRAS compounds as inhibitors of peroxidase activity, a standard assay using Amplex® Red (Life Technologies), which releases a fluorescent oxidation product.
The test compounds, such as GRAS materials or cocktails of same, were prepared at a concentration of 500 ppm in distilled water. For the assay, 50 μl samples of test compounds were mixed with 20-30 μl of saliva (either “pooled” or “unpooled”) prior to the addition of Amplex® Red. […] Reactions were allowed to run for 30 minutes during these assays.

[2] = target: T1, α-amylase (Homo sapiens, UniProt P0DUB6); experiment: α-Amylase inhibition saliva screening (chromogenic substrate, absorbance 405 nm); format: biochemical; settings: test compound prepared at 5,000 ppm, 37° C.; for absorbance at 405 nm, single readings: four replicate readings
T1 sequence (P0DUB6 16-511): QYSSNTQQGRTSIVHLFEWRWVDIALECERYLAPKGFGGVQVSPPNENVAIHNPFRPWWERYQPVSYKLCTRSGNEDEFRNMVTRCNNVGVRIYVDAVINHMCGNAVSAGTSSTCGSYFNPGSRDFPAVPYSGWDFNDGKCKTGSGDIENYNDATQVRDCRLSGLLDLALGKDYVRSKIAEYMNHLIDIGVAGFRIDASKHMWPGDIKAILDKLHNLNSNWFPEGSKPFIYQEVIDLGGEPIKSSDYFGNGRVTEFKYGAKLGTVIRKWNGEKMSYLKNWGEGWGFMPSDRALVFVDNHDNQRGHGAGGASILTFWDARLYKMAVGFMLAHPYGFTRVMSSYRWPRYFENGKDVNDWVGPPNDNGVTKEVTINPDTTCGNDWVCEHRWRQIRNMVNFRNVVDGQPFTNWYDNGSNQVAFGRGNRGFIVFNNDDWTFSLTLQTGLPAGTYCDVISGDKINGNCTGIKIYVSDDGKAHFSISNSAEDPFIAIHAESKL
Text: Further details of these five compounds may also be seen in Table 4.

[3] = tested on: protease; settings: natural protease inhibitors from food; cited from earlier work

## Cn1c(=O)c2c(ncn2C)n(C)c1=O [CDI #33, Caffeine]
[1]
  peroxidase inhibition: significant peroxidase inhibition capabilities

## COc1ccc(O)c(C(C)(C)C)c1 [CDI-039, 3-tert--butyl-hydroxyanisole]
[1]
  peroxidase inhibition: significant peroxidase inhibition capabilities

## Aluminum potassium sulfate dodecahydrate [CDI-42]
[2]; 0 min
  Ave (absorbance at 405 nm): 0.92
  absorbance at 405 nm, single readings: 0.80 and 1.13 and 0.90 and 0.84
[2]; 5 min
  absorbance at 405 nm, single readings: 1.65 and 2.15 and 1.80 and 1.81
[2]; 15 min
  absorbance at 405 nm, single readings: 2.37 and 2.38 and 2.25 and 2.17
[1]
  peroxidase inhibition: significant peroxidase inhibition capabilities

## Aluminum sulfate hydrate [CDI-34]
[2]; 0 min
  Ave (absorbance at 405 nm): 0.40
[2]; 0 min, sulfate hydrate
  absorbance at 405 nm, single readings: 0.40 (2×) and 0.36 and 0.45
[2]; 5 min
  Ave (absorbance at 405 nm): 0.50
[2]; 5 min, sulfate hydrate
  absorbance at 405 nm, single readings: 0.49 and 0.50 (2×) and 0.52
[2]; 15 min
  Ave (absorbance at 405 nm): 0.56
[2]; 15 min, sulfate hydrate
  absorbance at 405 nm, single readings: 0.53 and 0.61 and 0.54 and 0.56

B1: Soybeans: primary soybean protease inhibitor, 20.7-22.3 kDa (protein, UniProt P01070 25-205, looked up)
Trypsin inhibitor A: DFVLDNEGNPLENGGTYYILSDITAFGGIRAAPTGNERCPLTVVQSRNELDKGIGTIISSPYRIRFIAEGHPLSLKFDSFAVIMLCVGIPTEWSVVEDLPEGPAVKIGENKDAMDGWFRLERVSDDEFNNYKLVFCPQQAEDDKCGDIGISIDHDDGTRRLVVSKNKPLVVQFQKLDKESL
[3]
  Inhibitory power: 1.2 times times weight
